In ChEMBL document CHEMBL1155310, “Synthesis and evaluation of 2-amino-dihydrotetrabenzine derivatives as probes for imaging vesicular monoamine transporter-2” (Bioorg Med Chem Lett, 2009) one finds Ki and Ratio data, which are given here for 7 compounds.

Each structure is given as a SMILES string.

Series [1] concerns the target T1, Synaptic vesicular amine transporter (Rattus norvegicus, UniProt Q01827). Briefly: Displacement of [125I]-iodovinyl-TBZ from VMAT2 in rat striatal membrane homogenates. Type of series: cell membranes, Striatum.
The target of series [2] is T1, Synaptic vesicular amine transporter. Description: Displacement of [3H]-DTBZ from VMAT2 in rat striatal membrane homogenates. It is filed as cell membranes, Striatum. (Displacement assays read how much labelled ligand stays bound in the presence of the test substance.)
The target of series [3] is Synaptic vesicular amine transporter (Homo sapiens, UniProt Q05940). Description: Binding affinity to VMAT2.
Series [4] is described as follows: Ratio of drug level in striatum to cerebellum in iv dosed mouse after 30 mins. Type of series: ADME, organism-based. The following applies: in vivo, 0.5 h.

T1 sequence (Q01827 whole entry): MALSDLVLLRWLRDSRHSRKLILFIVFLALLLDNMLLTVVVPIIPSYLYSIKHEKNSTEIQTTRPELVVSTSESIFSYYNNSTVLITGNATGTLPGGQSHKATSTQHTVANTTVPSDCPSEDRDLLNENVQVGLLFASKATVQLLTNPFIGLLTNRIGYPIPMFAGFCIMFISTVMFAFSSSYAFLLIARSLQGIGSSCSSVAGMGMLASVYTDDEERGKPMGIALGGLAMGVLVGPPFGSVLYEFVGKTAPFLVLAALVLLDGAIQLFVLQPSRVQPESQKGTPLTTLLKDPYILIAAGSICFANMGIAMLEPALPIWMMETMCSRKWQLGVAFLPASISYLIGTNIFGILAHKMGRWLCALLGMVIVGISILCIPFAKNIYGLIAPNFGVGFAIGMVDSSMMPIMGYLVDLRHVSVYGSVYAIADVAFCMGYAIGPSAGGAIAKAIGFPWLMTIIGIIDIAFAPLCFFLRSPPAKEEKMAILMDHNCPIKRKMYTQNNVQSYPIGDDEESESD
Synaptic vesicular amine transporter (Homo sapiens, UniProt Q05940), sequence (Q05940 whole entry): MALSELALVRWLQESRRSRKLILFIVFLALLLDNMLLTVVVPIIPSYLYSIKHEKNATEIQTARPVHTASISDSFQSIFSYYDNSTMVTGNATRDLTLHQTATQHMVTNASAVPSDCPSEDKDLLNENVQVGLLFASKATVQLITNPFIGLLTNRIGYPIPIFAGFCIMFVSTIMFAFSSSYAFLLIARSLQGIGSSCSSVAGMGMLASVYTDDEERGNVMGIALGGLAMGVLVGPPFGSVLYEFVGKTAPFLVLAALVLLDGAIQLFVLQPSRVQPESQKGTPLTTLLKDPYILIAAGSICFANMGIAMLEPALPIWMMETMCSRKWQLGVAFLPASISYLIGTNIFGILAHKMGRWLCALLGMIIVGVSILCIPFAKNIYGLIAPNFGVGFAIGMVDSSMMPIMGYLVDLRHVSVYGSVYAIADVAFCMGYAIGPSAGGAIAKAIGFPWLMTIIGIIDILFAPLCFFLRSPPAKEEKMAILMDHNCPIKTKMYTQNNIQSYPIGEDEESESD

For the compound `COc1cc2c(cc1OCCCF)CCN1C[C@@H](CC(C)C)[C@H](O)C[C@H]21` [FLORBENAZINE], the figures for the Ki in series [1], in series [2] and in series [3] were 0.24 nM, 0.36 nM and 0.1 nM, respectively. Also, the Ratio in series [4] worked out at 4.51.
With `COc1cc2c(cc1OC)C1CC(NCCF)C(CC(C)C)CN1CC2` (mixture of isomers), the Ki (usually the dissociation constant of the complex between target and ligand, obtained from inhibition or displacement) in series [1] worked out at 28 nM; in series [2], 230 nM.
For the compound `COc1cc2c(cc1OC)C1CC(N)C(CC(C)C)CN1CC2` (stereo unspecified), the inhibitory constant (Ki) in series [1] is 45 nM; in series [2] it was 150 nM.
`COc1cc2c(cc1OC)C1CC(NCCF)C(CC(C)C)CN1CC2` (stereo in doubt; 4-I): the inhibition constant (Ki) in series [1] came to 9.21 nM; in series [2], 8.63 nM.
The like results for `COc1cc2c(cc1OC)C1CC(NCCCF)C(CC(C)C)CN1CC2` (stereo unspecified) were, in that order, 8.68 nM and 7.01 nM.
As for `COc1cc2c(cc1OC)C1CC(NCCF)C(CC(C)C)CN1CC2` (single isomer, unassigned; diastereomer 2), the Ki was found to be 226 nM in series [1] and 686 nM in series [2].
On the same counts, the results for `CNC1CC2c3cc(OC)c(OC)cc3CCN2CC1CC(C)C` (stereo unspecified) are 199 nM and 269 nM.
